Like-named read-outs stand apart in the source and are kept apart here.
Experiments:
Fuji apple variety [1] = conditions: in vivo; for Phytotoxicity: Fuji, apple
Protocol: Each of the chemical solutions was sprayed with a DIA (FURUPLA DIA SPRAY 570, Furupla Co., Ltd.) handy spray in both right and left directions in a sufficient amount to run along each flower cluster.
In this test, treatment (spraying) was performed when lateral flowers was in full bloom (Apr. 25, 2014), and phytotoxicity was assessed by visual scoring on day 4 after post-spraying (April 29) and day 11 after post-spraying (May 6). The flower-thinning effect was measured by recording the number of young fruits set without flower thinning on 20 days post-spraying (May 15). The flower thinning activity relative to that of the untreated group was presented as (1−number of young fruits in treated group/number of young fruits in untreated group)×100. This test was designed to have 8 replications with one flower cluster as one replication. Fertilization of the apple flowers was induced by natural fertilization.

peach leaves = conditions: 3-4% decyl alcohol; cited from earlier work
honeybees [2] = conditions: active ingredient dissolved in acetone
Protocol: In the contact toxicity test for honeybees, healthy honeybees bred in an outdoor beekeeping system were acclimated in a breeding cage, and then anesthetized with CO2. […] This treatment was repeated 3 times for ten honeybees per test cage, and the honeybees were bred at 25° C. under dark conditions for 72 hours. The lethality of each aliphatic alcohol was measured.

honeybees [3] = assay: Acute contact toxicity to honeybees, active ingredients in acetone (Test Example 4); format: in vivo; conditions: for Lethality (%): 72 hours after treatment
Fuji apple variety [4] = assay: Flower-thinning effect of one alcohol species formulations (Test Example 1); format: in vivo; conditions: for Number of lateral fruits set: 20 days post-spraying; for Lateral flower-thinning rate (%) / Total flower-thinning rate (%): relative to untreated group; for Flower-thinning contribution rate in IAP-108: spray concentration 0.2%, effect × content (0.4 or 0.6)
[5] = treatment dose 200 μg per honeybee in acetone

CCCCCCCCCCO [1-Decanol, 1-decanol]
Phytotoxicity (Fuji apple variety [1]): 0 | Phytotoxicity (in words) (Fuji apple variety [1]): no phytotoxicity | Phytotoxicity to peach leaves (peach leaves): significant phytotoxicity | Lethality (%) (honeybees [2]; treatment dose 50 μg): 70% | Comparative contact toxicity to honeybees (in words) (honeybees [3]; among aliphatic alcohols and versus fatty acids of same carbon number): more toxic than 1-decanoic acid | Comparative contact toxicity to honeybees (in words) (honeybees [3]; in vivo): highest lethality | Lethality (%) (honeybees [3]; treatment dose 50 μg per honeybee in acetone): 70% | Lethality (%) (honeybees [3]; [5]): 100% | Number of central fruits set (Fuji apple variety [4]; concentration 0.01%): 6 | Total number of fruits set (Fuji apple variety [4]; concentration 0.01%): 22 | Number of lateral fruits set (Fuji apple variety [4]; concentration 0.01%): 16 | Lateral flower-thinning rate (%) (Fuji apple variety [4]; concentration 0.01%): 16% | Total flower-thinning rate (%) (Fuji apple variety [4]; concentration 0.01%): 12% | Number of central fruits set (Fuji apple variety [4]; concentration 0.05%): 5 | Total number of fruits set (Fuji apple variety [4]; concentration 0.05%): 22 | Number of lateral fruits set (Fuji apple variety [4]; concentration 0.05%): 17 | Lateral flower-thinning rate (%) (Fuji apple variety [4]; concentration 0.05%): 11% | Total flower-thinning rate (%) (Fuji apple variety [4]; concentration 0.05%): 12% | Number of central fruits set (Fuji apple variety [4]; concentration 0.2%): 5 | Total number of fruits set (Fuji apple variety [4]; concentration 0.2%): 15 | Number of lateral fruits set (Fuji apple variety [4]; concentration 0.2%): 10 | Lateral flower-thinning rate (%) (Fuji apple variety [4]; concentration 0.2%): 47% | Total flower-thinning rate (%) (Fuji apple variety [4]; concentration 0.2%): 40% | Flower-thinning contribution rate in IAP-108 (Fuji apple variety [4]): 28.2%

CCCCCCO [1-Hexanol, 1-hexanol]
Phytotoxicity (Fuji apple variety [1]): 0 | Lethality (%) (honeybees [2]; treatment dose 100 μg): 3.3% | Lethality (%) (honeybees [3]; [5]): 6.7% | Number of central fruits set (Fuji apple variety [4]; concentration 0.2%): 6 | Total number of fruits set (Fuji apple variety [4]; concentration 0.2%): 15 | Number of lateral fruits set (Fuji apple variety [4]; concentration 0.2%): 9 | Lateral flower-thinning rate (%) (Fuji apple variety [4]; concentration 0.2%): 53% | Total flower-thinning rate (%) (Fuji apple variety [4]; concentration 0.2%): 40% | Number of central fruits set (Fuji apple variety [4]; concentration 1%): 5 | Total number of fruits set (Fuji apple variety [4]; concentration 1%): 10 | Number of lateral fruits set (Fuji apple variety [4]; concentration 1%): 5 | Lateral flower-thinning rate (%) (Fuji apple variety [4]; concentration 1%): 74% | Total flower-thinning rate (%) (Fuji apple variety [4]; concentration 1%): 60%

CCCCCCCCO [1-Octanol, 1-octanol]
Lethality (%) (honeybees [2]; treatment dose 100 μg): 50% | Lethality (%) (honeybees [3]; [5]): 50% | Number of central fruits set (Fuji apple variety [4]; concentration 0.2%): 7 | Total number of fruits set (Fuji apple variety [4]; concentration 0.2%): 13 | Number of lateral fruits set (Fuji apple variety [4]; concentration 0.2%): 6 | Lateral flower-thinning rate (%) (Fuji apple variety [4]; concentration 0.2%): 68% | Total flower-thinning rate (%) (Fuji apple variety [4]; concentration 0.2%): 48% | Number of central fruits set (Fuji apple variety [4]; concentration 1%): 3 | Total number of fruits set (Fuji apple variety [4]; concentration 1%): 4 | Number of lateral fruits set (Fuji apple variety [4]; concentration 1%): 1 | Lateral flower-thinning rate (%) (Fuji apple variety [4]; concentration 1%): 95% | Total flower-thinning rate (%) (Fuji apple variety [4]; concentration 1%): 84% | Efficacy (in words) (Fuji apple variety [4]; concentration of 1% (V/V)): sufficient efficacy | Flower-thinning contribution rate in IAP-108 (Fuji apple variety [4]): 27.2%

CCCCCCCCCC(=O)O [1-decanoic acid, reference compound]
Lethality (%) (honeybees [3]; [5]): 90%

CCCCCC(=O)O [1-hexanoic acid, reference compound]
Lethality (%) (honeybees [3]; [5]): 30.0%

CCCCCCCC(=O)O [1-octanoic acid, reference compound]
Lethality (%) (honeybees [3]; [5]): 60%

CCCCCCCC/C=C\CCCCCCCCO [Oleyl alcohol, oleyl alcohol]
Lethality (%) (honeybees [3]; [5]): 20% | Lateral flower-thinning rate (%) (Fuji apple variety [4]; concentration 0.1%): 16%

Source: patent US11771083B2, “Flower thinning composition and flower thinning method using same” (priority 2018, dated 2023)
